According to US20220056019A1, “FARNESOID X RECEPTOR AGONISTS AND USES THEREOF” (Metacrine, Inc., priority 2018, published 2022):

target: T1, hFXR (Homo sapiens, UniProt Q96RI1); experiment: In Vitro FXR Assay (TK): TK-ECRE-luc reporter in transfected CV-1 cells; format: cell-based; settings: 18 hrs incubation, luminescence
T1 construct: expressed in transfected cells; host or cells: CV-1 cells
T1 sequence (Q96RI1 1-486): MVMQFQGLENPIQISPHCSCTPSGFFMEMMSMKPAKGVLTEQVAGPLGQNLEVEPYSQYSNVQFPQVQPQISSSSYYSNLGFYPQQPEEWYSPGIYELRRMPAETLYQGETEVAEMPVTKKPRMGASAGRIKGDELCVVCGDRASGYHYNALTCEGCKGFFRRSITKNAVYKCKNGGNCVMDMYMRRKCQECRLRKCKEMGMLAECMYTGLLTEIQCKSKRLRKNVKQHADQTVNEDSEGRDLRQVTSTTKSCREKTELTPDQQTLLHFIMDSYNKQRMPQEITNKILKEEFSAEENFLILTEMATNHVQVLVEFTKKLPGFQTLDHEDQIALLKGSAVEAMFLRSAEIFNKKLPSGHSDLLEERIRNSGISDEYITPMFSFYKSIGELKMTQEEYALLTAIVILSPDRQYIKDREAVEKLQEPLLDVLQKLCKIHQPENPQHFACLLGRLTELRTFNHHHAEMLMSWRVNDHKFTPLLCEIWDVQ
T1 sequence (P19793 1-462 partner): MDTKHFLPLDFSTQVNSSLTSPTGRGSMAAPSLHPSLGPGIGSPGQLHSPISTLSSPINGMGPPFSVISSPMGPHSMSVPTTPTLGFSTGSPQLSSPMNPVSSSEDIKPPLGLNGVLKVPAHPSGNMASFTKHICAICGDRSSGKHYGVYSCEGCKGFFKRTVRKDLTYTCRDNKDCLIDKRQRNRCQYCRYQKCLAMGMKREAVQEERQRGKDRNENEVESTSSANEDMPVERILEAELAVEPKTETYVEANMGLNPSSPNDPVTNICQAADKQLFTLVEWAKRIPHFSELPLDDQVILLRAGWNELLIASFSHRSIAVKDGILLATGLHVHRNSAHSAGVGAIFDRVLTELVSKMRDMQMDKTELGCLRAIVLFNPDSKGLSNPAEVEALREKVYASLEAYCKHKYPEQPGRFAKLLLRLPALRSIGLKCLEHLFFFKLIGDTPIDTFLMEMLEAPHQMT
In short: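 Luminescence from a TK-ECRE-luc reporter was read after 18 h of compound exposure in CV-1 cells. These cells were grown in charcoal-stripped FBS medium and transiently transfected with hFXR, hRXR and YFP expression plasmids.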

EC50, ≤ 50 nM:
COc1ccc(C23CCC(CN(c4cccc(-c5nnc(C6CC6)o5)c4)C(=O)[C@H]4CC[C@H](OC(=O)N5CC(O)C5)CC4)(CC2)CC3)cc1C [Compound 4.32, 4-((3-(5-Cyclopropyl-1,3,4-oxadiazol-2-yl)phenyl)((4-(4-methoxy-3-methylphenyl)bicyclo [2.2.2]octan-1-yl)methyl)carbamoyl)cyclohexyl trans-3-hydroxyazetidine-1-carboxylate]
COc1ccc(C23CCC(CN(c4cc(-n5cnc(C(C)C)n5)ccn4)C(=O)[C@H]4CC[C@H](OC(=O)N5CC(O)C5)CC4)(CC2)CC3)cc1C [Compound 4.18, 4-((4-(3-Isopropyl-1H-1,2,4-triazol-1-yl)pyridin-2-yl)((4-(4-methoxy-3-methylphenyl)bicyclo [2.2.2]octan-1-yl)methyl)carbamoyl)cyclohexyl 3-hydroxyazetidine-trans-1-carboxylate]
COc1ccc(C23CCC(CN(c4cc(-c5cnn(C6CCC6)c5)ccn4)C(=O)[C@H]4CC[C@H](OC(=O)N5CC(CO)C5)CC4)(CC2)CC3)cc1C [Compound 23.10, 4-((4-(1-Cyclobutyl-1H-pyrazol-4-yl)pyridin-2-yl)((4-(4-methoxy-3-methylphenyl)bicyclo[2.2.2]octan-1-yl)methyl)carbamoyl)(trans-cyclohexyl) 3-(hydroxymethyl)azetidine-1-carboxylate]
COc1ccc(C23CCC(CN(c4cc(-c5cnn(C(C)C)c5)ccn4)C(=O)[C@H]4CC[C@H](OC(=O)N5CC(O)C5)CC4)(CC2)CC3)cc1Cl [Compound 4.16, 4-(((4-(3-Chloro-4-methoxyphenyl)bicyclo [2.2.2]octan-1-yl)methyl) (4-(1-isopropyl-1H-pyrazol-4-yl)pyridin-2-yl)carbamoyl)cyclohexyl hydroxyazetidine-1-carboxylate]
COc1ccc(C23CCC(CN(c4cc(-c5cnc(C6CC6)s5)ccn4)C(=O)[C@H]4CC[C@H](NC(C)=O)CC4)(CC2)CC3)cc1C [Compound 9.06, (trans)-4-Acetamido-N-(4-(2-cyclopropylthiazol-5-yl)pyridin-2-yl)-N-((4-(4-methoxy-3-methylphenyl)bicyclo[2.2.2]octan-1-yl)methyl)cyclohexanecarboxamide]
COc1ccc(C23CCC(CN(c4cc(-c5cnc(C(C)C)s5)ccn4)C(=O)[C@H]4CC[C@H](OC(=O)N5CC(S(C)(=O)=O)C5)CC4)(CC2)CC3)cc1C [Compound 4.34, 4-((4-(2-Isopropylthiazol-5-yl)pyridin-2-yl)((4-(4-methoxy-3-methylphenyl)bicyclo[2.2.2]octan-1-yl)methyl)carbamoyl)(trans-cyclohexyl) 3-(methylsulfonyl)azetidine-1-carboxylate]
COc1ccc(C23CCC(CN(c4cc(-c5cnn(C(C)C)c5)ccn4)C(=O)[C@H]4CC[C@H](OC(=O)N5CC(OC(C)C)C5)CC4)(CC2)CC3)cc1C [Compound 23.11, 4-((4-(1-Isopropyl-1H-pyrazol-4-yl)pyridin-2-yl)((4-(4-methoxy-3-methylphenyl)bicyclo[2.2.2]octan-1-yl)methyl)carbamoyl)(trans-cyclohexyl) 3-isopropoxy-azetidine-1-carboxylate]
COc1ccc(C23CCC(CN(c4cc(-c5cnn(C6(C)CCC6)c5)ccn4)C(=O)[C@H]4CC[C@H](OC(=O)N5CC(CS(C)(=O)=O)C5)CC4)(CC2)CC3)cc1C [Compound 25.20, 4-(((4-(4-Methoxy-3-methylphenyl)bicyclo[2.2.2]octan-1-yl)methyl)(4-(1-(1-methylcyclobutyl)-1H-pyrazol-4-yl)pyridin-2-yl)carbamoyl)(trans-cyclohexyl) 3-((methysulfonyl)methyl)azetidine-1-carboxylate]
COc1ccc([C@H]2CC[C@H](CN(c3cccc(-c4cnn(C(C)C)c4)c3)C(=O)[C@H]3CC[C@H](OC(=O)NCCCF)CC3)CC2)cc1C [Compound 5.04, trans-4-((3-(1-Isopropyl-1H-pyrazol-4-yl)phenyl)(((trans)-4-(4-methoxy-3-methylphenyl)cyclohexyl)methyl)carbamoyl)cyclohexyl (3-fluoropropyl)carbamate]
COc1ccc(C23CCC(CN(c4cc(-c5cnc(C(C)C)s5)ccn4)C(=O)[C@H]4CC[C@H](OC(=O)NCCO)CC4)(CC2)CC3)cc1C [Compound 4.36, 4-((4-(2-Isopropylthiazol-5-yl)pyridin-2-yl)((4-(4-methoxy-3-methylphenyl)bicyclo[2.2.2]octan-1-yl)methyl)carbamoyl) cyclohexyl(2-hydroxyethyl)trans-carbamate]
COc1ccc(C23CCC(CN(c4cc(-c5cnc(C(C)C)s5)ccn4)C(=O)[C@H]4CC[C@H](OC(=O)NCCCO)CC4)(CC2)CC3)cc1C [Compound 4.33, 4-((4-(2-Isopropylthiazol-5-yl)pyridin-2-yl)((4-(4-methoxy-3-methylphenyl)bicyclo[2.2.2]octan-1-yl)methyl)carbamoyl)(trans-cyclohexyl) (3-hydroxypropyl)carbamate]
COc1ccc(C23CCC(CN(c4cc(-c5ccn(C(C)C)n5)ccn4)C(=O)[C@H]4CC[C@H](OC(=O)N5CC(O)C5)CC4)(CC2)CC3)cc1C [Compound 23.16, 4-((4-(1-Isopropyl-1H-pyrazol-3-yl)pyridin-2-yl)((4-(4-methoxy-3-methylphenyl)bicyclo[2.2.2]octan-1-yl)methyl)carbamoyl)cyclo-hexyl trans-3-hydroxyazetidine-1-carboxylate]
COc1ccc(C23CCC(CN(c4cccc(-c5cnn(C(C)C)c5)n4)C(=O)[C@H]4CC[C@H](OC(=O)N5CC(O)C5)CC4)(CC2)CC3)cc1C [Compound 23.25, 4-((6-(1-Isopropyl-1H-pyrazol-4-yl)pyridin-2-yl)((4-(4-methoxy-3-methylphenyl)bicyclo[2.2.2]octan-1-yl)methyl)carba-moyl)cyclohexyl trans-3-hydroxy-azetidine-1-carboxylate]
COc1ccc([C@H]2CC[C@H](CN(c3cc(-c4cnc(C5CC5)o4)ccn3)C(=O)[C@H]3CC[C@H](OC(=O)N4CC(O)C4)CC3)CC2)cc1C [Compound 2.01, trans-4-((4-(2-Cyclopropyloxazol-5-yl)pyridin-2-yl)((trans-4-(4-methoxy-3-methylphenyl)cyclohexyl)methyl)carbamoyl)cyclohexyl 3-hydroxyazetidine-1-carboxylate]
COCC1CN(C(=O)O[C@H]2CC[C@H](C(=O)N(CC34CCC(c5ccc(OC)c(C)c5)(CC3)CC4)c3cc(-c4cnn(C(C)C)c4)ccn3)CC2)C1 [Compound 4.41, 4-((4-(1-Isopropyl-1H-pyrazol-4-yl)pyridin-2-yl) ((4-(4-methoxy-3-methylphenyl)bicyclo [2.2.2]octan-1-yl)methyl)carbamoyl)cyclohexyl trans-3-(methoxymethyl) azetidine-1-carboxylate]
